Source: paper PMC4010497, “Synthesis and Evaluation of Fluorine-Substituted Phenyl Acetate Derivatives as Ultra-Short Recovery Sedative/Hypnotic Agents” (PLoS ONE, 2014)

Legend:
mice [1] = assay: animal or person; format: in vivo; details: mice; for ED50: Mus musculus, IV over 10 s, 95% confidence limits, read-out: HD50 (the source's name); for Duration of LORR: IV 2× HD50, mean ± SD (n = 10); for Onset time: IV, mean ± SD (n = 10)
Description: All tests were performed during the light period. Groups of mice, rats and rabbits were injected intravenously (lateral tail vein) over 10 s with each dose of test compound, placed in separate boxes to reduce external stimuli and assessed for the loss of righting reflex. Dosing was performed using mg/kg scheme. A set of dose levels was chosen, and depending on whether the loss of righting reflex was observed, extra doses were introduced to provide data for the loss of righting reflex over a narrow dose range to allow potency calculations. From the percentage of mice, rats and rabbits in each group showing loss of righting reflex for ≥30 s, a probit analysis (SAS Institute) was performed to obtain an HD50 for each compound with 95% confidence limits.
Immediately following the injection, the mice, rats and rabbits were tested for loss of righting reflex. […] Once a loss was observed, the interval between the loss of righting reflex and the return to righting reflex was recorded. The anesthetized animals recovered righting reflexes spontaneously. To compare the duration of LORR of each compound at equipotent doses, groups of mice, rats and rabbits were injected with each compound at 2× HD50 over 10 s.
Time to walk was the time required after righting before mice and rabbits walked from the center to the periphery of a 30-cm diameter dise.
The rotarod test was conducted to evaluate the recovery to the motor coordination. Before the LORR test, mice were trained for 2 consecutive days. Trained mice could maintain their balance on rod for more than 2 mins. After the mice could walk from the center to the periphery of a 30-cm diameter dise, they were put on the rotarod. Mice were classified as behavioral recovery when, on being placed on the rod, they could maintain their balance for 20 s. The time to behavioral recovery was the time required after mice walked from the centre to the periphery of a 30-cm diameter disc before they could maintain their balance on rod for 20 s.

GABAA receptor = assay: GABAA radioligand binding assay ([3H]EBOB); details: 50 µM compound, 0.5 nM [3H]EBOB, rat frontoparietal cortex
Description: All the new compounds were dissolved in 5% DMSO.
Specific binding was determined in the presence of compounds.
Membrane suspensions were thawed and centrifuged in incubation buffer at 10,000×g for 10 min and washed by a similar centrifugation. For displacement studies, membrane suspensions (5 mg original wet wt./ml) were incubated with 0.5 nM [^3H]EBOB ([…], Perkin Elmer Life Sciences, Boston, MA, USA) in the absence or presence of 50 µM of new compounds or reference drug for 2 h at 25°C. Nonspecific binding was determined in the presence of 10 µM Bicuculline. Bicuculline and picrotoxin were frequently used to determine the nonspecific binding when [3H]EBOB as radioligand [17]. Triplicate 1 ml samples were filtered on Whatman GF/B filters under vacuum with a Brandel Harvester and washed with 3×3 ml ice-cold buffer.

[2] = Octanol:water partition coefficient; format: physicochemical; details: water buffered with 10 mm Tris (pH 7.4)
Description: One mg of each hypnotic was added to 10 ml of water buffered with 10 mm Tris (pH 7.4) and 1 ml of octanol. The mixture was stirred overnight and then centrifuged to fully separate the organic and aqueous phases. The relative hypnotic concentration in each phase (i.e., the partition coefficient) was determined by high-performance liquid chromatography as described for blood.

in vivo = details: mouse, in vivo, mice, 95% confidence limits
Description: (§1) The LD50 was determined in mice, rats, and rabbits and the TI was calculated as LD50/HD50.

mice [3] = assay: in vivo; details: LD50/HD50
Description: as §1

Structure (SMILES)	ED50 (mice [1])	Duration of LORR (mice [1])	Onset time (mice [1])	GABAA binding (50 µmol) (Mean ± SD), percentage of inhibition (GABAA receptor)	Octanol:Water Partition (Coefficient ± SD) [2]	LD50 (in vivo)	TI (mice [3])	anesthetic potency (in words) (mice [1])	Time to walk (mice [1]; 2× HD50)	time to behavioral recovery (mice [1]; 2× HD50, rotarod)	LD50 (in vivo; intravenous)
CCOc1cc(CC(=O)OCCC(F)(F)F)ccc1OCC(=O)N(CC)CC [Compound 5k, 3,3,3-trifluoropropyl 2-(4-(2-(diethylamino)-2-oxoethoxy)-3-ethoxyphenyl)acetate]	29.2 mg/kg	65.6 ± 6.8 s	7.6 ± 0.9 s	74.0±6.3%	667±102	–	–	–	–	–	–
CCOC(=O)Cc1ccc(OCC(=O)N(CC)CC)c(OCC(F)(F)F)c1 [Compound 5d, ethyl 2-(4-(2-(diethylamino)-2-oxoethoxy)-3-(2,2,2-trifluoroethoxy)phenyl)acetate]	47.4 mg/kg	181.9 ± 14.3 s	25.2 ± 3.8 s	67.7±3.2%	778±77	260 mg/kg	5.5	–	–	–	–
CCOc1cc(CC(=O)OC(C)C(F)(F)F)ccc1OCC(=O)N(CC)CC (stereo not shown) [Compound 5l, 1,1,1-trifluoropropan-2-yl 2-(4-(2-(diethylamino)-2-oxoethoxy)-3-ethoxyphenyl)acetate]	20.7 mg/kg	121.2 ± 11.5 s	7.3 ± 1.1 s	79.5±10.0%	2857±400	103 mg/kg	5.1	–	–	–	–
CCN(CC)C(=O)COc1ccc(CC(=O)OCC(F)(F)F)cc1OCC(F)(F)F [Compound 5f, 2,2,2-trifluoroethyl 2-(4-(2-(diethylamino)-2-oxoethoxy)-3-(2,2,2-trifluoroethoxy)phenyl)acetate]	–	–	–	45.4±4.3%	1452±156	–	–	poor anesthetic potency	–	–	–
CCN(CC)C(=O)COc1ccc(CC(=O)OCC(F)(F)F)cc1OC(F)(F)F [Compound 5c, 2,2,2-trifluoroethyl 2-(4-(2-(diethylamino)-2-oxoethoxy)-3-(trifluoromethoxy)phenyl)acetate]	–	–	–	30.4±3.5%	3427±130	–	–	poor anesthetic potency	–	–	–
CCCOC(=O)Cc1ccc(OCC(=O)N(CC)CC)c(OCC(F)(F)F)c1 [Compound 5e, propyl 2-(4-(2-(diethylamino)-2-oxoethoxy)-3-(2,2,2-trifluoroethoxy)phenyl)acetate]	43.8 mg/kg	224.6 ± 19.5 s	23.4 ± 4.6 s	72.2±6.5%	872±65	250 mg/kg	5.7	–	–	–	–
CCN(CC)C(=O)COc1ccc(CC(=O)OC(C)C(F)(F)F)cc1OC (stereo not shown) [Compound 5i, 1,1,1-trifluoropropan-2-yl 2-(4-(2-(diethylamino)-2-oxoethoxy)-3-methoxyphenyl)acetate]	21.1 mg/kg	80.1 ± 9.3 s	7.2 ± 0.5 s	81.6±10.5%	1857±124	112 mg/kg	5.5	–	–	–	–
CCN(CC)C(=O)COc1ccc(CC(=O)OCC(F)(F)F)cc1OC [Compound 5g, 2,2,2-trifluoroethyl 2-(4-(2-(diethylamino)-2-oxoethoxy)-3-methoxyphenyl)acetate]	59.6 mg/kg	44.8 ± 2.1 s	6.2 ± 0.4 s	87.2±5.7%	597±68	363 mg/kg	6.1	–	22.5 ± 6.9 s	46.5 ± 8.5 s	–
CCOC(=O)Cc1ccc(OCC(=O)N(CC)CC)c(OC(F)(F)F)c1 [Compound 5a, Ethyl 2-(4-(2-(diethylamino)-2-oxoethoxy)-3-(trifluoromethoxy)phenyl)acetate]	72.5 mg/kg	155.2 ± 10.3 s	35.1 ± 6.8 s	69.1±4.2%	2157±185	442 mg/kg	6.1	–	–	–	–
CCCOC(=O)Cc1ccc(OCC(=O)N(CC)CC)c(OC(F)(F)F)c1 [Compound 5b, propyl 2-(4-(2-(diethylamino)-2-oxoethoxy)-3-(trifluoromethoxy)phenyl)acetate]	58.7 mg/kg	162.6 ± 15.7 s	32.4 ± 5.6 s	73.9±5.3%	4745±280	–	5.9	–	–	–	346 mg/kg
CCN(CC)C(=O)COc1ccc(CC(=O)OCCC(F)(F)F)cc1OC [Compound 5h, 3,3,3-trifluoropropyl 2-(4-(2-(diethylamino)-2-oxoethoxy)-3-methoxyphenyl)acetate]	25.6 mg/kg	69.3 ± 7.8 s	7.5 ± 1.2 s	80.3±7.6%	792±36	–	–	–	–	–	–
